Experiment: mn = molality of the nth substance listed, in mol/kg
Settings: Liquid

NC(N)=O [urea] + O
Settings	mass density [kg/m3]
274.15 K, 101 kPa, Vibrating tube method, m1 = 0.093	1001.57
274.15 K, 101 kPa, Vibrating tube method, m1 = 0.1063	1001.81
274.15 K, 101 kPa, Vibrating tube method, m1 = 0.141	1002.43
274.15 K, 101 kPa, Vibrating tube method, m1 = 0.152	1002.62
274.15 K, 101 kPa, Vibrating tube method, m1 = 0.1809	1003.14
274.15 K, 101 kPa, Vibrating tube method, m1 = 0.2423	1004.22
274.15 K, 101 kPa, Vibrating tube method, m1 = 0.4362	1007.6
274.15 K, 101 kPa, Vibrating tube method, m1 = 0.5644	1009.79
274.15 K, 101 kPa, Vibrating tube method, m1 = 1.008	1017.11
274.15 K, 101 kPa, Vibrating tube method, m1 = 1.609	1026.44
274.15 K, 101 kPa, Vibrating tube method, m1 = 2.505	1039.26
275.15 K, 101 kPa, Vibrating tube method, m1 = 0.093	1001.6
275.15 K, 101 kPa, Vibrating tube method, m1 = 0.1063	1001.84
275.15 K, 101 kPa, Vibrating tube method, m1 = 0.141	1002.45
275.15 K, 101 kPa, Vibrating tube method, m1 = 0.152	1002.64
275.15 K, 101 kPa, Vibrating tube method, m1 = 0.1809	1003.16
275.15 K, 101 kPa, Vibrating tube method, m1 = 0.2423	1004.23
275.15 K, 101 kPa, Vibrating tube method, m1 = 0.4362	1007.59
275.15 K, 101 kPa, Vibrating tube method, m1 = 0.5644	1009.77
275.15 K, 101 kPa, Vibrating tube method, m1 = 1.008	1017.04
275.15 K, 101 kPa, Vibrating tube method, m1 = 1.609	1026.31
275.15 K, 101 kPa, Vibrating tube method, m1 = 2.505	1039.07
276.15 K, 101 kPa, Vibrating tube method, m1 = 0.093	1001.61
276.15 K, 101 kPa, Vibrating tube method, m1 = 0.1063	1001.85
276.15 K, 101 kPa, Vibrating tube method, m1 = 0.141	1002.46
276.15 K, 101 kPa, Vibrating tube method, m1 = 0.152	1002.65
276.15 K, 101 kPa, Vibrating tube method, m1 = 0.1809	1003.16
276.15 K, 101 kPa, Vibrating tube method, m1 = 0.2423	1004.22
276.15 K, 101 kPa, Vibrating tube method, m1 = 0.4362	1007.56
276.15 K, 101 kPa, Vibrating tube method, m1 = 0.5644	1009.73
276.15 K, 101 kPa, Vibrating tube method, m1 = 1.008	1016.96
276.15 K, 101 kPa, Vibrating tube method, m1 = 1.609	1026.17
276.15 K, 101 kPa, Vibrating tube method, m1 = 2.505	1038.86
277.15 K, 101 kPa, Vibrating tube method, m1 = 0.093	1001.61
277.15 K, 101 kPa, Vibrating tube method, m1 = 0.1063	1001.85
277.15 K, 101 kPa, Vibrating tube method, m1 = 0.141	1002.45
277.15 K, 101 kPa, Vibrating tube method, m1 = 0.152	1002.64
277.15 K, 101 kPa, Vibrating tube method, m1 = 0.1809	1003.15
277.15 K, 101 kPa, Vibrating tube method, m1 = 0.2423	1004.2
277.15 K, 101 kPa, Vibrating tube method, m1 = 0.4362	1007.52
277.15 K, 101 kPa, Vibrating tube method, m1 = 0.5644	1009.67
277.15 K, 101 kPa, Vibrating tube method, m1 = 1.008	1016.85
277.15 K, 101 kPa, Vibrating tube method, m1 = 1.609	1026.02
277.15 K, 101 kPa, Vibrating tube method, m1 = 2.505	1038.66
278.15 K, 101 kPa, Vibrating tube method, m1 = 0.093	1001.59
278.15 K, 101 kPa, Vibrating tube method, m1 = 0.1063	1001.82
278.15 K, 101 kPa, Vibrating tube method, m1 = 0.141	1002.42
278.15 K, 101 kPa, Vibrating tube method, m1 = 0.152	1002.61
278.15 K, 101 kPa, Vibrating tube method, m1 = 0.1809	1003.12
278.15 K, 101 kPa, Vibrating tube method, m1 = 0.2423	1004.17
278.15 K, 101 kPa, Vibrating tube method, m1 = 0.4362	1007.46
278.15 K, 101 kPa, Vibrating tube method, m1 = 0.5644	1009.6
278.15 K, 101 kPa, Vibrating tube method, m1 = 1.008	1016.74
278.15 K, 101 kPa, Vibrating tube method, m1 = 1.609	1025.85
278.15 K, 101 kPa, Vibrating tube method, m1 = 2.505	1038.42
278.15 K, 101 kPa, Vibrating tube method, m1 = 3.376	1049.57
278.15 K, 101 kPa, Vibrating tube method, m1 = 4.33	1060.83
278.15 K, 101 kPa, Vibrating tube method, m1 = 5.39	1072.16
278.15 K, 101 kPa, Vibrating tube method, m1 = 8	1096.24
278.15 K, 101 kPa, Vibrating tube method, m1 = 9.9	1110.86
278.15 K, 101 kPa, Vibrating tube method, m1 = 12.8	1129.78
278.15 K, 10000 kPa, Constant-volume piezometry, m1 = 0.1809	1007.91
278.15 K, 10000 kPa, Constant-volume piezometry, m1 = 0.4362	1012.23
278.15 K, 10000 kPa, Constant-volume piezometry, m1 = 0.5644	1014.35
278.15 K, 10000 kPa, Constant-volume piezometry, m1 = 1.609	1030.49
278.15 K, 10000 kPa, Constant-volume piezometry, m1 = 2.505	1042.94
278.15 K, 10000 kPa, Constant-volume piezometry, m1 = 3.376	1053.98
278.15 K, 10000 kPa, Constant-volume piezometry, m1 = 5.39	1076.38
278.15 K, 10000 kPa, Constant-volume piezometry, m1 = 8	1100.31
278.15 K, 10000 kPa, Constant-volume piezometry, m1 = 10.99	1122.33
278.15 K, 10000 kPa, Constant-volume piezometry, m1 = 12.8	1133.68
278.15 K, 25000 kPa, Constant-volume piezometry, m1 = 0.1809	1014.96
278.15 K, 25000 kPa, Constant-volume piezometry, m1 = 0.4362	1019.23
278.15 K, 25000 kPa, Constant-volume piezometry, m1 = 0.5644	1021.32
278.15 K, 25000 kPa, Constant-volume piezometry, m1 = 1.609	1037.26
278.15 K, 25000 kPa, Constant-volume piezometry, m1 = 2.505	1049.56
278.15 K, 25000 kPa, Constant-volume piezometry, m1 = 3.376	1060.45
278.15 K, 25000 kPa, Constant-volume piezometry, m1 = 5.39	1082.6
278.15 K, 25000 kPa, Constant-volume piezometry, m1 = 8	1106.3
278.15 K, 25000 kPa, Constant-volume piezometry, m1 = 10.99	1128.15
278.15 K, 25000 kPa, Constant-volume piezometry, m1 = 12.8	1139.4
278.15 K, 50000 kPa, Constant-volume piezometry, m1 = 0.1809	1026.22
278.15 K, 50000 kPa, Constant-volume piezometry, m1 = 0.4362	1030.39
278.15 K, 50000 kPa, Constant-volume piezometry, m1 = 0.5644	1032.44
278.15 K, 50000 kPa, Constant-volume piezometry, m1 = 1.609	1048.03
278.15 K, 50000 kPa, Constant-volume piezometry, m1 = 2.505	1060.07
278.15 K, 50000 kPa, Constant-volume piezometry, m1 = 3.376	1070.75
278.15 K, 50000 kPa, Constant-volume piezometry, m1 = 5.39	1092.51
278.15 K, 50000 kPa, Constant-volume piezometry, m1 = 8	1115.83
278.15 K, 50000 kPa, Constant-volume piezometry, m1 = 10.99	1137.36
278.15 K, 50000 kPa, Constant-volume piezometry, m1 = 12.8	1148.51
278.15 K, 75000 kPa, Constant-volume piezometry, m1 = 0.1809	1036.88
278.15 K, 75000 kPa, Constant-volume piezometry, m1 = 0.4362	1040.96
278.15 K, 75000 kPa, Constant-volume piezometry, m1 = 0.5644	1042.96
278.15 K, 75000 kPa, Constant-volume piezometry, m1 = 1.609	1058.21
278.15 K, 75000 kPa, Constant-volume piezometry, m1 = 2.505	1069.97
278.15 K, 75000 kPa, Constant-volume piezometry, m1 = 3.376	1080.48
278.15 K, 75000 kPa, Constant-volume piezometry, m1 = 5.39	1101.91
278.15 K, 75000 kPa, Constant-volume piezometry, m1 = 8	1124.88
278.15 K, 75000 kPa, Constant-volume piezometry, m1 = 10.99	1146.09
278.15 K, 75000 kPa, Constant-volume piezometry, m1 = 12.8	1157.08
278.15 K, 100000 kPa, Constant-volume piezometry, m1 = 0.1809	1046.98
278.15 K, 100000 kPa, Constant-volume piezometry, m1 = 0.4362	1050.97
278.15 K, 100000 kPa, Constant-volume piezometry, m1 = 0.5644	1052.94
278.15 K, 100000 kPa, Constant-volume piezometry, m1 = 1.609	1067.87
278.15 K, 100000 kPa, Constant-volume piezometry, m1 = 2.505	1079.44
278.15 K, 100000 kPa, Constant-volume piezometry, m1 = 3.376	1089.73
278.15 K, 100000 kPa, Constant-volume piezometry, m1 = 5.39	1110.78
278.15 K, 100000 kPa, Constant-volume piezometry, m1 = 8	1133.5
278.15 K, 100000 kPa, Constant-volume piezometry, m1 = 10.99	1154.43
278.15 K, 100000 kPa, Constant-volume piezometry, m1 = 12.8	1165.23
279.15 K, 101 kPa, Vibrating tube method, m1 = 0.093	1001.56

Source: the NIST ThermoML archive (doi:10.1016/j.jct.2018.01.024)
